In US20070248581A1, “MGRA IS A REDOX REGULATOR OF ANTIBIOTIC SENSITIVITY AND VIRULENCE” (priority 2006, published 2007):
Converted amounts (≈) assume the structure as drawn.

Key:
[1] = test system: S. aureus mgrA mutant (mgrA-) strain; test: MIC measurement, susceptibility of mgrA mutant strain to fluoroquinolones and vancomycin; assay type: cell-based; conditions: Staphylococcus aureus
Protocol: (§1) S. aureus cells were serially diluted and an equal number of cells was spotted on a plate containing various concentrations of antibiotics. The S. aureus strain Newman (wild-type) and the mutant strains mgrA- and mgrH1- (knock outs) were tested.

[2] = test system: S. aureus strain Newman (wild-type); test: MIC measurement, susceptibility of wild-type strain to fluoroquinolones and vancomycin; assay type: cell-based; conditions: Staphylococcus aureus
Protocol: as §1

[3] = target: T1, MgrA (Staphylococcus aureus, UniProt Q99VT5); test: Alkylation of Cys12 in MgrA, DTNB assay for free thiol content; assay type: biochemical, S. aureus; set-up: His6 (N, cleaved yes); made in house; host or cells: E. coli BL21(DE3); conditions: 8 equivalents alkylator, 0.05 mM MgrA in water, pH 7.4, 1 h, r.t.
T1 sequence (Q99VT5 1-147): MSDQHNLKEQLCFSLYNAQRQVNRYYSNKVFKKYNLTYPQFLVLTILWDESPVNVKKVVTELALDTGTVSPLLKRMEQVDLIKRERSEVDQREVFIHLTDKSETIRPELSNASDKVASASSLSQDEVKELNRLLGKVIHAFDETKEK
Protocol: Alkylation of Cys12 in MgrA in vitro and in vivo. In a study to test potential alkylation of Cys12 in MgrA, the inventors examined several alkylators (1-7, Table 3). Eight equivalents of alkylators were used to react with 0.05 mM MgrA in water for 1 h at pH 7.4 at room temperature. Alkylation of Cys12 was determined by DTNB assay for free thiol content. […] Over 95% of cysteine thiols were alkylated by compound 7 after 1 h of reaction.

[4] = test system: norA gene; test: qRT-PCR of norA gene activation; assay type: cell-based, S. aureus; conditions: Newman strain
Protocol: Lanes 1 and 2, purified MgrA (2 μM) with a 40 bp oligonucleotide (0.4 pmol) containing the MgrA binding sequence on the sarV promoter region; lanes 3 and 4, MgrA was treated with 100 equivalents of phenyl vinyl sulfone (7) for 30 min (lane 3) or 60 min (lane 4) before mixed with DNA and applied for the shift assay. FIGS. 13A-B: The Cys-alkylator phenyl vinyl sulfone (PVS) has similar effects on MgrA as hydrogen peroxide. (FIG. 13A) Treatment of the Newman strain with PVS turned on resistance of the pathogen towards vancomycin. (FIG. 13B) The norA gene is repressed by MgrA; however, treatment of the Newman strain with either H2O2 or PVS can turn on this gene.
Activation of MgrA by phenyl vinyl sulfone (PVS) inside S. aureus was tested. […] To further confirm the effect of PVS, the inventors monitored activation of the norA gene known to be repressed by MgrA. […] The next challenge is to develop vinyl sulfones that have high affinity and specificity toward MgrA. Of course, a non-covalent modulator that can activate MgrA with high sensitivity and specificity via direct binding is also highly desirable.

[5] = test system: S. aureus Newman strain; test: Antibiotic sensitivity assay of S. aureus under oxidative stress or alkylator treatment; assay type: cell-based, Staphylococcus aureus
Protocol: The change of susceptibility levels of S. aureus strains toward ciprofloxacin and vancomycin under oxidative stress. The antibiotic resistance levels were tested in the absence (−H2O2) or presence (+H2O2) of 100 μM H2O2 by a plate sensitivity assay (FIG. 7A) and were also determined in the absence (−PQ) or presence (+PQ) of 25 μM paraquat by a 96-well-plate sensitivity assay (FIG. 7B). […] Empty bars are non-treated cultures. Results are mean ±s.d. from three independent experiments performed in duplicate.
Five strains were used to test oxidation responses in vivo: the wild-type Newman, the mgrA- mutant (knock out), the mgrA- mutant complemented with mgrA cloned in a plasmid pYJ335, the mgrA- mutant complemented with mgrAC12S in pYJ335, and the control mutant strain with pYJ335.
The susceptibility levels of all five strains toward CIP and VCM were also evaluated in the absence and presence of paraquat (PQ), another reagent known to cause oxidative stress in vivo (FIG. 7B).

[6] = target: T2, SarA (Staphylococcus aureus, UniProt P0C1U6); test: Oxidation of Cys9 in SarA by oxidants; assay type: biochemical, S. aureus; conditions: 100 equiv oxidant, 30 min, r.t.
T2 construct: made in house
T2 sequence (P0C1U6 1-124): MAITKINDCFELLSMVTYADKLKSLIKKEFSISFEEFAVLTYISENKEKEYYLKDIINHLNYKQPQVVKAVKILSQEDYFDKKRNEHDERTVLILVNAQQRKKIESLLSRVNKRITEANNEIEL
Excerpt: SarA may adopt an oxidation sensing mechanism similar to MgrA. Cys9 in SarA might be oxidized by ROS or other reactive species which could lead to its dissociation from DNA and activation of the sarA regulon. To test this hypothesis, they cloned, expressed, and purified SarA.

[7] = target: T1, MgrA; conditions: 4 equiv oxidant, 10 min, r.t.
[8] = target: T3, MgrH1 (Staphylococcus aureus, UniProt Q2FVN3); conditions: 4 equiv oxidant, 10 min, r.t.
T3 sequence (Q2FVN3 1-148): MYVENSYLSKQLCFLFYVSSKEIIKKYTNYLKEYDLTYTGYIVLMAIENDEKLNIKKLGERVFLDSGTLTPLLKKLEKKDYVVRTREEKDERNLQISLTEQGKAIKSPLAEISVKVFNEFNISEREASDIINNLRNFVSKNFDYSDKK

[9] = test system: splB gene; conditions: Newman strain, 0.4 mM, 30 min, qRT-PCR
Excerpt: (FIG. 10C) Monitoring in vivo effects of SarA oxidation by qRT-PCR.
The inventors also monitored activation of a virulence gene splB in S. aureus.

[10] = target: T1, MgrA; test: Binding assays of MgrA with antibiotics; set-up: His6 (N, cleaved yes); made in house; host or cells: E. coli BL21(DE3); species or system S. aureus
Excerpt: The regulation mechanism of MgrA. […] The inventors were very intrigued by what they had learned about MgrA: • i) MgrA is a DNA binding protein based on its structure and gel shift experiments. • ii) MgrA regulates S. aureus responses to fluoroquinolones (CIP and NOR, FIG. 1), vancomycin, and oxacillin (data not shown). […] Therefore, MgrA must sense some other host or environmental signals. The mechanistic issue for MgrA frustrated the inventors after they obtained the first crystal structure of this protein. Numerous binding assays were peformed to test a variety of hypotheses. A breakthrough came from a careful inspection of the MgrA structure and its sequence, when it was noticed that there is only one Cys residue present in the entire MgrA sequence, at position 12. This Cys residue, located in the N-terminal α1, is precisely in the dimerization domain (FIG. 4A) and seems to play an important role in orienting the MgrA dimer conformation. Each monomer presents its Cys12 to be recognized through hydrogen bonding to Ser113 and Tyr38 from the other monomer (FIG. 4B).

O=C(O)c1cn(C2CC2)c2cc(N3CCNCC3)c(F)cc2c1=O [CIP, ciprofloxacin]
MIC [1]: 0.7 µg/mL (≈ 2.11 µM) | MIC [2]: 0.35 µg/mL (≈ 1.06 µM)

CCOC(=O)CI [Compound 2]
Alkylation percentage (Cys12 of MgrA) [3]: >95%

O=C(CI)c1ccccc1 [Compound 3]
Alkylation percentage (Cys12 of MgrA) [3]: >95%

O=C1C=CC(=O)N1 [Compound 4]
Alkylation percentage (Cys12 of MgrA) [3]: >95%

c1ccc(OCC2CO2)cc1 (centres unmarked) [Compound 5]
Alkylation percentage (Cys12 of MgrA) [3]: 48%

c1ccc(CC2CO2)cc1 (centres unmarked) [Compound 6]
Alkylation percentage (Cys12 of MgrA) [3]: 59%

C=CS(=O)(=O)c1ccccc1 [Compound 7, phenyl vinyl sulfone]
Activation of norA gene [4]: activated norA as efficient as H2O2 | Change of resistance to vancomycin ([5]; 25 μM PVS, Newman strain): enhanced resistance to vancomycin

OO [Compound H2O2, hydrogen peroxide]
Oxidation of SarA (Cys9) [6]: 15% oxidation at r.t. | Oxidation of MgrA (Cys12) [7]: 4 equiv, 10 min, 65% | Change of resistance toward CIP and VCM ([5]; 100 μM H2O2, Newman strain, plate sensitivity assay): increased resistance | Oxidation of MgrH1 (Cys13) [8]: 4 equiv, 10 min, 71% | Activation of splB gene [9]: activated

CCn1cc(C(=O)O)c(=O)c2cc(F)c(N3CCNCC3)cc21 [NOR, norfloxacin]
MIC [1]: 1.4 µg/mL (≈ 4.38 µM) | MIC [2]: 0.7 µg/mL (≈ 2.19 µM)

C[n+]1ccc(-c2cc[n+](C)cc2)cc1 [PQ, paraquat]
Change of resistance toward CIP and VCM ([5]; 25 μM paraquat, Newman strain, 96-well-plate sensitivity assay): increased antibiotic resistance

CN[C@H](CC(C)C)C(=O)N[C@H]1C(=O)N[C@@H](CC(N)=O)C(=O)N[C@H]2C(=O)N[C@H]3C(=O)N[C@H](C(=O)N[C@H](C(=O)O)c4cc(O)cc(O)c4-c4cc3ccc4O)[C@H](O)c3ccc(c(Cl)c3)Oc3cc2cc(c3O[C@@H]2O[C@H](CO)[C@@H](O)[C@H](O)[C@H]2O[C@H]2C[C@](C)(N)[C@H](O)[C@H](C)O2)Oc2ccc(cc2Cl)[C@H]1O [VCM, vancomycin]
MIC [1]: 2.4 µg/mL (≈ 1.66 µM) | MIC [2]: 1.2 µg/mL (≈ 0.828 µM) | Binding to MgrA [10]: does not bind
